Read-outs that look alike come from different tables or passages of the source.
B1: Uteroglobin: protein purified from uterine washings of rabbits primed with chorionic gonadotropin; also known as blastokinin (protein, UniProt P02779 22-91, looked up)
Uteroglobin: GICPRFAHVIENLLLGTPSSYETSLKEFEPDDTMKDAGMQMKKVLDSLPQTTRENIMKLTEKIVKSPLCM

Tests used:
[1] = test system: prostanoid levels (PGE2, PGF2α) in skin lesions; assay: Prostanoid levels (radioimmunoassay) in tissues injected with phorbol myristate acetate; type: in vivo, rabbit; conditions: for Effect on tissue prostanoid levels (PGE2, PGF2α) (in words): rabbit skin lesions injected with phorbol; for Prostaglandin levels PGE2 / Prostaglandin levels PGF2 α: rabbit skin lesions, phorbol 10 μM then test substance 20 μM 0.1 ml after 5 minutes, mean of two experiments; for Prostaglandin levels PGF2 α: ND = Nondetectable
Experimental: These tissues were used for histopathological analysis.
A similar groups of animals were sacrificed 48 hours after the injections were made and the skin lesions were dissected out and homogenized in cold phosphate buffered saline (PBS, pH 7.4). The homogenate was centrifuged at 2500×g for 10 minutes at 4° C. The supernatants were frozen at -70° C. until assayed for prostaglandins.

[2] = test system: phorbol myristate acetate induced inflammation on rabbit skin; conditions: for Histopathology: inflammatory cells in phorbol injected skin (in words) / Effect on phorbol induced erythema and induration (in words) / Erythema (mm), Phorbol injected / Induration (mm), Phorbol injected: rabbit skin; for Histopathology: inflammatory cells in phorbol injected skin (in words): 20 μM injected after phorbol, FIG. 3; for Erythema (mm), Phorbol injected / Induration (mm), Phorbol injected: phorbol myristate acetate 10 μM, 0.1 ml, test substance 20 μM, mean ± SEM
Experimental: Animals: Virgin New Zealand rabbits weighting 3-3.5 Kg were used for all experiments. These animals were housed in separate cages and provided with food and water ad libitum. A daily schedule of 12 hours light and 12 hours darkness was maintained throughout the experimental period.
Induction of inflammation and the effect of uteroglobin: The dorsal skin of rabbits was shaved and 1/2 square inch areas demarcated lightly with a felt tip marker pen. […] The demarcated areas were used for identifying the locations where phorbol, carragennin, or other test substances were injected. Using a 25 gauge needle and a tuberculin syringe (1 cc), phorbol myristate acetate solution (10 mM) was injected into all areas, except for two, where no injections were given and two other areas where the solvent of phorbol myristate, dimethyl sulfoxide (DMSO), was injected alone. Various test substances were injected on one side of the vertebral column and the opposite side was used for controls. Thus, in this system a comparison of phorbol induced inflammation with the effects of various test substances could easily be made. These areas were observed daily and the diameter of the erythema and induration for each lesion was measured by the same observer. […] These tissues were used for histopathological analysis.

[3] = equimolar concentrations, concentration not given

| Molecule | Effect on tissue prostanoid levels (PGE2, PGF2α) (in words) [1] | Prostaglandin levels PGE2 [1] [pg/mg protein] | Prostaglandin levels PGF2 α [1] [pg/mg protein] | Histopathology: inflammatory cells in phorbol injected skin (in words) [2] | Effect on phorbol induced erythema and induration (in words) [2, 3] | Erythema (mm), Phorbol injected [2] [mm] | Induration (mm), Phorbol injected [2] [mm] | Erythema and induration induced by the substance itself (in words) ([2]; rabbit, in vivo) | Effect on phorbol induced erythema and induration (in words) ([2]; 10 μM, FIG. 4 dose response) | Effect on phorbol induced erythema and induration (in words) ([2]; 20 μM, FIG. 4 dose response) |
| --- | --- | --- | --- | --- | --- | --- | --- | --- | --- | --- |
| C[C@@H]1C[C@H]2[C@@H]3CCC4=CC(=O)C=C[C@]4(C)[C@@]3(F)[C@@H](O)C[C@]2(C)[C@@]1(O)C(=O)CO [Dexamethasone] | dramatically reduced these prostanoid levels | 106 | 88 | reduced the density of these inflammatory cells | dramatically reduced both erythema as well as induration | 10.5 ± 1.2 | 8.1 ± 2.0 | – | – | – |
| CCCCC/C=C\C/C=C\C/C=C\C/C=C\CCCC(=O)O [arachidonic acid] | – | – | – | – | – | – | – | induced some erythema and induration | – | – |
| Myoglobin | – | – | – | did not have any inhibitory effect | did not have any suppressive effect | – | – | – | – | – |
| B1 | dramatically reduced these prostanoid levels | 94 | 58 | – | dramatically reduced both erythema as well as induration | 6.4 ± 0.5 | 5.1 ± 0.8 | – | Significant inhibitory effect | most dramatic effect |

Source: patent US5266562A, “Anti-inflammatory agents” (The United States of America as represented by the …, priority 1987, dated 1993)
